The series is described as follows: collision cross section (DTIM-MS, N2); higher = larger ion. The procedure:
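Collision cross section (CCS) of drug and natural-product chemical standards (validation set 2, measured in this paper). Three independent measurements were made across 2 months; the value taken is their mean (avg_ccs), for the ion adduct given.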

In the case of `O=c1cc(-c2ccccc2)c2ccc(O)c(O)c2o1` [7,8-Dihydroxy-4-phenylcoumarin], the collision cross section by setting is: (ion adduct: [M+H]+) 156.5 Å²; (ion adduct: [M-H]-) 157.01 Å². For the compound `CC(C)=CCC[C@](C)(O)[C@H]1CC[C@]2(C)[C@@H]1[C@H](O)C[C@@H]1[C@@]3(C)CC[C@H](O)C(C)(C)[C@@H]3[C@@H](O[C@@H]3O[C@H](CO)[C@@H](O)[C@H](O)[C@H]3O)C[C@]12C` [Ginsenoside Rh1], the collision cross section (ion adduct: [M-H]-) was 266.62 Å². On the same count and under the same terms, under `CC1=CC23C(=O)C(C=C(CO)C(O)C2(O)C1O)C1C(CC3C)C1(C)C` (stereo not given) [Ingenol] stands 184.41 Å². `COc1ccc(-c2cc(=O)c3c(O)cc(O)c(-c4cc(-c5cc(=O)c6c(O)cc(OC)cc6o5)ccc4OC)c3o2)cc1` [Sciadopitysin]: the collision cross section was 235.37 Å² (ion adduct: [M+H]+) and 235.5 Å² (ion adduct: [M-H]-).

Compound `OC[C@@H](O)[C@@H](O)[C@@H](O)[C@@H](O)CO` [Allitol] had a collision cross section (ion adduct: [M-H]-) of 132.47 Å². As to `COc1cc2oc(-c3ccc(O)cc3)cc(=O)c2c(O)c1C1OC(CO)C(O)C(O)C1OC1OC(CO)C(O)C(O)C1O` (stereo not given) [Spinosin], the collision cross section stood at 235.99 Å² (ion adduct: [M+H]+) and 239.41 Å² (ion adduct: [M-H]-). For `NC(=O)c1ccccc1O` [Salicylamide], in that order: 124.71 Å² and 122.43 Å².

As to `C=C[C@H]1[C@H](O[C@@H]2O[C@H](CO)[C@@H](O)[C@H](O)[C@H]2O)OC=C(C(=O)OC)[C@H]1CC(=O)O` [Secoxyloganin], the collision cross section (ion adduct: [M-H]-) worked out at 190.5 Å². On the same count and under the same terms, in the case of `Cc1cc(=O)oc2ccc(O)cc12` [6-Hydroxy-4-methylcoumarin] it was 135.48 Å².

Consider `CC1(C)[C@@H](O[C@H]2O[C@H](C(=O)O)[C@@H](O)[C@H](O)[C@H]2OC2O[C@H](C(=O)O)[C@@H](O)[C@H](O)[C@H]2O)CC[C@]2(C)[C@H]3C(=O)C=C4[C@@H]5C[C@@](C)(C(=O)O)CC[C@]5(C)CC[C@@]4(C)[C@]3(C)CC[C@@H]12` (stereo not given in full) [Glycyrrhizic acid], for which the collision cross section reads like this: (ion adduct: [M+H]+) 287.67 Å²; (ion adduct: [M-H]-) 281.13 Å².

Source of the values: the supplement of paper PMC7455731.
